From patent publication US9988371B2, “Benzimidazole analogues and related methods” (The Arizona Board of Regents, on Behalf of the University …, priority 2014, dated 2018) come the findings set out here.

The test system of one series is pMAPK. As to the kind of experiment: pMAPK immunoblot in Nthy-ori-3-1 cells. The series is classed as cell-based, human. As to conditions: Nthy-ory-3-1, non-transformed with oncogenic RET. The procedure: FIG. 3: Photographs of blots showing inhibition of RET protein endogenously expressed in TT cells (human MTC cell line expressing RET/C634W) by indicated concentrations of Pz-1 or vehicle (NT: not treated) and reduced effects in thyroid non-transformed Nthy-ori-3-1 cells. Serum-starved human TT and thyroid non-transformed Nthy-ori-3-1 cell lines were treated for 2 hr with indicated concentrations of Pz-1. 50 μg of total cell lysates were subjected to immunoblotting with anti-phospho-Y1062 (αp1062) and anti-phospho-905 (αpY905) RET antibodies, anti-phospho-MAPK (αpMAPK, T302/Y304), and anti-phospho-SHC (αpSHC, Y317) antibodies. The blots were normalized using anti-RET (αRET) and anti-SHC (αSHC).
The inhibition of RET auto-phosphorylation by Pz-1 was measured in several different cell lines including NIH3T3 fibroblasts expressing RET/C634Y or RET/M918T, TT expressing RET/C634W (MTC), Nthy-ory-3-1 (thyroid, non-transformed with RET; negative control), HEK293/RET/PTC1 (CCDC6-RET that can be found in PTC & lung cancer), HEK293/RET-KIF5B (that can be found in lung cancer), HEK293/RET/PTC3 (NCOA4-RET, that can be found in PTC & lung cancer), and HEK293 transfected with RET/C634R-V804M (FIGS. 1-3). […]
Protein lysates were prepared according to standard procedures. […] Immune complexes were detected with the enhanced chemiluminescence kit (Amersham Pharmacia Biotech, Little Chalfort, UK). […]
A general note: Immunoblotting shows a protein as a band on a membrane.

The test system of series [1] is intracellular signaling (SHC, MAPK, p70S6K and S6RP). As to the kind of experiment: In vivo target inhibition, RET phosphorylation and signaling in HRAS/G12V-induced tumors. Set-up: species or system nude mice. As to conditions: 48 hr, 1.0 or 3.0 mg/kg daily. How it is done: FIG. 9: Photographs of blots showing effects of Pz-1 on cellular phosphorylation events in tumors induced in nude mice (from FIG. 8) by injection of NIH3T3 fibroblasts transformed by RET/C634Y or HRAS/G12V. […] Some of the vehicle-treated tumors, at the end of the tumor growth experiment described in FIG. 8, were treated for 48 hr with different doses of Pz-1 (TR) or left untreated (NT). At the end of the treatment, 50 μg of tumor protein lysates were subjected to immunoblotting with anti-phospho-Y1062 (αp1062) and anti-phospho-905 (αpY905) RET antibodies, anti-phospho-MAPK (αpMAPK, T302/Y304), anti-phospho-SHC (αpSHC, Y317), anti-phospho-p70S6K (αpp70S6K, T389), anti-phospho-S6RP (αpS6RP, S235/S236), and anti-phospho-VEGFR2 (αpVEGFR2 pY1175) antibodies. The blots were normalized using anti-RET (αRET), anti-SHC (αSHC), anti-MAPK (αMAPK), anti-p70S6K (αp70S6K), anti-S6RP (αS6RP) or anti-VEGFR2 (αVEGFR2) antibodies.
Some of the vehicle-treated tumors, at the end of the tumor growth experiment reported in FIG. 8, were treated for 48 hr with different doses of Pz-1 (1.0 or 3.0 mg/kg daily) or left untreated. […]

Another series addresses T1, hERG (Homo sapiens, UniProt Q12809).
T1 construct: purchased GenScript
As to the kind of experiment: patch clamp hERG assay. In kind it is cell-based. As to conditions: patch clamp (GenScript). How it is done: (§1) Pz-1 was minimally active in the patch clamp hERG assay, with an IC50 for the hERG assay of 10 μM (GenScript).
A general note: Patch clamp records ionic current or voltage across a cell membrane.

In the next series the target is T2, hERG (relative to RET) (Homo sapiens, UniProt Q12809).
T2 construct: purchased GenScript
T2 sequence (Q12809 whole entry): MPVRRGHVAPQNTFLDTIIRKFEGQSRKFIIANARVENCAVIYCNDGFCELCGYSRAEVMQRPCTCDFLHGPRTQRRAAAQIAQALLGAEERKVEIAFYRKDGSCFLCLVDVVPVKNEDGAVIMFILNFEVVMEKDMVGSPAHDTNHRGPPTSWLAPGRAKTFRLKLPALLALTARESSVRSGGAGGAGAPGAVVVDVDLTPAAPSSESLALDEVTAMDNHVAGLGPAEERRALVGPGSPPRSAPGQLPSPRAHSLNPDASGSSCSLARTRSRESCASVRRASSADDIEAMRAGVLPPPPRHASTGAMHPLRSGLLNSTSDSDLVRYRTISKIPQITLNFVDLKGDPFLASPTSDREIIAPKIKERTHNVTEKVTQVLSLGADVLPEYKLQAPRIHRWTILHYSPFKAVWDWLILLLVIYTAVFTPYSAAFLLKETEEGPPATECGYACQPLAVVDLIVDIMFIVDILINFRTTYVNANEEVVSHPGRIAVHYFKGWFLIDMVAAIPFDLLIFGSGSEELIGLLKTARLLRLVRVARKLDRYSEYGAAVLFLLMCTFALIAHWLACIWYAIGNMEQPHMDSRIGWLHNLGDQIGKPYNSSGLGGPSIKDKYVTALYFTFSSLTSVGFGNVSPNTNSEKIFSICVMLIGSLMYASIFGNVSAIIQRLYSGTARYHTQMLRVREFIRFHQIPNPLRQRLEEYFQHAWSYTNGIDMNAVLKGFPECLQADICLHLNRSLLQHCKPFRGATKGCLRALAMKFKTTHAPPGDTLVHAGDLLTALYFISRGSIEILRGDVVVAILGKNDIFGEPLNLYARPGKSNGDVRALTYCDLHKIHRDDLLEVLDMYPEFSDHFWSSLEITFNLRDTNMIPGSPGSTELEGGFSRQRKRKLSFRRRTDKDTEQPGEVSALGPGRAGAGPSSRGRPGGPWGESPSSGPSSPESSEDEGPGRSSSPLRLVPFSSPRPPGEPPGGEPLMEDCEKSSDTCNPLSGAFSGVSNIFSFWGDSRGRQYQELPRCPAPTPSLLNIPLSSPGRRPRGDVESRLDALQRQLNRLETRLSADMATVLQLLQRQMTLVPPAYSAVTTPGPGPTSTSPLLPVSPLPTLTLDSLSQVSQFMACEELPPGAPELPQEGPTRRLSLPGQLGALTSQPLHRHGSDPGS
As to the kind of experiment: patch clamp hERG assay. In kind it is cell-based. As to conditions: human; read-out: selectivity for RET over hERG. How it is done:
as §1

T1 sequence (Q12809 whole entry): as above

`Cn1cc(-c2ccc3c(c2)ncn3-c2ccc(CC(=O)Nc3cc(C(C)(C)C)on3)cc2)cn1` [Pz-1, N-(5-(tert-butyl)isoxazol-3-yl)-2-(4-(5-(1-methyl-1H-pyrazol-4-yl)-1H-benzo[d]imidazol-1-yl)phenyl)acetamide]: the “concentration at which pMAPK was inhibited” value in the series with pMAPK is listed as 100 nM. Besides, the “RET phosphorylation and intracellular signaling (SHC, MAPK, p70S6K and S6RP) in tumors” value in series [1] was “only in RET/C634Y-induced tumors”. This compound also registered an IC50 against hERG of 10 µM. Also, at hERG (relative to RET), the selectivity ratio worked out at 10000.

The IC50 is the concentration at which inhibition is half-maximal. High values mean a need for much substance, low ones inhibition by little substance.
